Experimental data: patent publication US20140044759A1, “DRUG SUBSTANCES, PHARMACEUTICAL COMPOSITIONS AND METHODS FOR PREPARING THE SAME” (priority 2011, published 2014)

Tests used:
Type in all cases: physicochemical
[1] = BET specific surface area by nitrogen adsorption (TRISTAR 2000); details: for BET specific surface area, effect of slurry composition: external T=18 °C, FIG. 10
Source text: Through these tests, it was established that drug substance Brunnauer-Emmett-Teller specific surface area (“BET specific surface area” or “BET SSA”) in a particular range is desirable to obtain desirable dissolution properties in the final product. BET specific surface area can be measured by physical adsorption methods known to one of skill in the art. All measurements described herein were made on a TRISTAR 2000 instrument (MICROMERITICS, Norcross, Ga.) using the nitrogen adsorption method, as described in Webb, P. A., “Surface Area, Porosity, and Related Physical Characteristics,” in PHARMACEUTICAL DOSAGE FORMS: TABLETS, VOLUME 3: MANUFACTURE AND PROCESS CONTROL 277-302 (eds. L. Augsburger & S. W. Hoag Informa Healthcare USA Inc. 2008). In the nitrogen absorption method, a tube containing a solid sample is preconditioned at a certain temperature for a predetermined amount of time to remove gases/vapors adsorbed on the surface of the solids. For the examples described herein, the equilibration temperature was 30° C., and the time was 16 hours. The tube is then placed into the instrument and evacuated. After evacuation, the tube is submerged into liquid nitrogen, and a known amount of nitrogen (N2) gas is introduced in the tube by means of a control valve. The N2 gas expands and fills the free volume of the tube. The pressure P of the tube will become equal to nRT/V, where n is the number of N2 gas molecules introduced in the sample tube, R is the universal gas constant, T is the absolute temperature and V is the tube free volume. By repeating the evacuation and filling procedure for different amounts of N2 gas, a BET isotherm curve can be obtained, and the BET specific surface area of the solids can be calculated from the slope of the BET curve, as described in Webb (supra).

[2] = Dissolution testing of drug product, USP Dissolution Apparatus 2 (paddle); details: 45 minutes; drug substance BET SSA 12.06 m^2/g
Protocol: The resulting drug products were subjected to dissolution testing in a USP Dissolution Apparatus 2 (DISTEK, New Brunswick, N.J.), equipped with a paddle (see United States Pharmacopeia (USP) General Chapter 711 Dissolution). 50 millimoles of phosphate buffer (pH=6.8) containing 0.1% sodium dodecyl sulphate was used. Testing was performed at physiological temperatures (37.0° C.±0.5° C.).

[3] = Bulk and tap density of drug substance powder (morphology study)
Protocol: A solution of the product of Example 1, Procedure A2 (608.5 g) dissolved in MTBE (2450 mL) was prepared. The solution was added into the mixing chamber at a rate of 840 mL/min and combined with n-heptane flowing at a rate of 3400 mL/min to form a slurry. The precipitation temperature was controlled at 20° C. After precipitation, one sample was filtered at 20° C. and a second sample was heated to 50° C. at a rate of 1° C./min. The drug substance particle morphology was examined by Scanning Electron Microscopy (SEM); images of the particles are provided as FIGS. 7A and 7B, respectively.
The difference in morphology between the two […] samples is readily apparent. The sample filtered at 20° C., shown in FIG. 7A, retained the particle morphology obtained during precipitation. The sample heated to 50° C., shown in FIG. 7B, consists of particles that are fused together; some particles look melted. The particles having different morphologies also had differences in drug substance physical attributes.

[4] = aging process, sample: After 1% of batch distilled
[5] = aging process, sample: After 2% of batch distilled
[6] = aging process, sample: After 4% of batch distilled
[7] = aging process, sample: After 6 hours at aging temperature
[8] = aging process, sample: After distillation
[9] = aging process, sample: After precipitation
[10] = aging process, sample: Final dry cake
[11] = Example 8, equilibration temperature 20 °C (filtered at 20 °C)
[12] = Example 8, equilibration temperature 50 °C (heated to 50 °C at 1 °C/min)

Which “BET SSA” value [1, 4] does the source give for `CC(C)(C)NC(=O)N[C@H](C(=O)N1C[C@H]2[C@@H]([C@H]1C(=O)NC(CC1CCC1)C(=O)C(N)=O)C2(C)C)C(C)(C)C` (stereo partly shown) [Batch 2] here?
Its value is 7.14 m^2/g.

And the “BET SSA” value [1, 5]?
The value was 6.90 m^2/g.

And the “BET SSA” value [1, 6]?
The value was 6.88 m^2/g.

And the “BET SSA” value [1, 7]?
Its value is 7.36 m^2/g.

And the “BET SSA” value [1, 8]?
Its value is 6.92 m^2/g.

And the “BET SSA” value [1, 9]?
Its value is 46.94 m^2/g.

What about the “BET SSA” value [1, 10] of the same molecule?
Its value is 7.61 m^2/g.

Which “% Dissolved” value [2] does the source give for `CC(C)(C)NC(=O)N[C@H](C(=O)N1C[C@H]2[C@@H]([C@H]1C(=O)NC(CC1CCC1)C(=O)C(N)=O)C2(C)C)C(C)(C)C` (stereo partly drawn) [boceprevir, (1R,5S)—N-[3-amino-1-(cyclobutylmethyl)-2,3-dioxopropyl]-3-[2(S)-[[[(1,1-dimethylethyl)amino]carbonyl]amino]-3,3-dimethyl-1-oxobutyl]-6,6-dimethyl-3-azabicyclo[3.1.0]hexan-2(S)-carboxamide] here?
Its value is “did not consistently meet or exceed a 75% dissolution criterion”.

And the “bulk and tap density, powder of FIG. 7A (20 °C) compared to powder of FIG. 7B (50 °C)” value ([3]; Example 8)?
Its value is “about 2 times”.

What about the “Bulk Density” value [3, 11] of the same molecule?
The value was 0.3087 g/mL.

What about the “Tap Density” value [3, 11] of the same molecule?
Its value is 0.4062 g/mL.

And the “Bulk Density” value [3, 12]?
Its value is 0.1265 g/mL.

And the “Tap Density” value [3, 12]?
The value was 0.1898 g/mL.

And the “BET specific surface area” value ([1]; Example 2, laboratory scale tee mixer, slurry filtered immediately after precipitation and dried)?
Its value is “about 94 m^2/g”.

What about the “BET specific surface area” value ([1]; Example 6, distillation profile of Table 3) of the same molecule?
The value was 2.93 m^2/g.

What about the “BET specific surface area” value ([1]; Example 6, distillation profile of Table 11 (25-27.0 °C)) of the same molecule?
Its value is 2.01 m^2/g.

And the “BET specific surface area” value ([1]; Example 7, drug substance used for the high BET SSA study)?
The value was 12.06 m^2/g.

And the “BET specific surface area, powder of FIG. 7A (20 °C) compared to powder of FIG. 7B (50 °C)” value ([1]; Example 8)?
Its value is 10 times.

What about the “BET SSA” value [1, 11] of the same molecule?
The value was 19.11 m^2/g.

What about the “BET SSA” value [1, 12] of the same molecule?
The value was 1.82 m^2/g.

What about the “final BET specific surface area as a function of equilibration temperature” value ([1]; Example 9, slurries from -15 °C held at external temperatures of 5 °C and 0 °C, FIG. 8) of the same molecule?
Its value is “lower for the higher equilibration temperature”.

And the “changes in BET specific surface area on holding at aging temperature” value ([1]; Example 10, aging temperature 14 °C, after 3 hours of holding, FIG. 6)?
The value was “very small changes”.

What about the “BET specific surface area, effect of slurry composition” value ([1]; Example 12, first slurry (low solvent/high anti-solvent)) of the same molecule?
Its value is “higher drug substance BET specific surface area”.

And the “BET specific surface area, effect of slurry composition” value ([1]; Example 12, second slurry (high solvent/low anti-solvent))?
Its value is “lower drug substance BET specific surface area”.

For `CC(C)(C)NC(=O)N[C@H](C(=O)N1C[C@H]2[C@@H]([C@H]1C(=O)NC(CC1CCC1)C(=O)C(N)=O)C2(C)C)C(C)(C)C` (stereo partly shown) [Batch 1], which “BET SSA” value [1, 4] is on record?
Its value is 9.18 m^2/g.

And the “BET SSA” value [1, 5]?
Its value is 9.13 m^2/g.

And the “BET SSA” value [1, 6]?
Its value is 9.05 m^2/g.

What about the “BET SSA” value [1, 7] of the same molecule?
The value was 9.60 m^2/g.

What about the “BET SSA” value [1, 8] of the same molecule?
The value was 8.88 m^2/g.

What about the “BET SSA” value [1, 9] of the same molecule?
Its value is 56.70 m^2/g.

And the “BET SSA” value [1, 10]?
Its value is 9.30 m^2/g.
